Results as given in patent publication US8026282B2, “Phenoxyalkylcarboxylic acid derivatives in the treatment of irritable bowel syndrome” (Medicinova, Inc., priority 2004, dated 2011).

What was measured:
[1] = molecular target: Adrenergic, NE Transporter (Homo sapiens, UniProt P23975); experiment: Biochemical assay Adrenergic, NE Transporter; assay type: binding; settings: Hu; for Ki: value in parentheses
[2] = molecular target: LTB4 (Homo sapiens, UniProt Q15722); experiment: Biochemical assay LTB4; assay type: binding; settings: LTB4, Hu
Sequence of LTB4 (Q15722 whole entry): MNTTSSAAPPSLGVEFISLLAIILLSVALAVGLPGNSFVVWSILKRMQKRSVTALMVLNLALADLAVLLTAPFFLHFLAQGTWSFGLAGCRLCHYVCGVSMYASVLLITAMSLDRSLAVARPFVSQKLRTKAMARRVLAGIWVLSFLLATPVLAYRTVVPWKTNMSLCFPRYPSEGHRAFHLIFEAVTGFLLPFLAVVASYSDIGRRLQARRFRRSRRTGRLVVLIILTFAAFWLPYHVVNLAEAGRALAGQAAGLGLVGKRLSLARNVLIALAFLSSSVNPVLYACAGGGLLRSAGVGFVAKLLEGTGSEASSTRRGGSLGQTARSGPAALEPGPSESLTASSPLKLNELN

[3] = molecular target: T1, PDE6 (Bos taurus, UniProt P11541+P23439); experiment: Biochemical assay PDE6; settings: PDE6, Bov
T1 sequence (P11541 1-859): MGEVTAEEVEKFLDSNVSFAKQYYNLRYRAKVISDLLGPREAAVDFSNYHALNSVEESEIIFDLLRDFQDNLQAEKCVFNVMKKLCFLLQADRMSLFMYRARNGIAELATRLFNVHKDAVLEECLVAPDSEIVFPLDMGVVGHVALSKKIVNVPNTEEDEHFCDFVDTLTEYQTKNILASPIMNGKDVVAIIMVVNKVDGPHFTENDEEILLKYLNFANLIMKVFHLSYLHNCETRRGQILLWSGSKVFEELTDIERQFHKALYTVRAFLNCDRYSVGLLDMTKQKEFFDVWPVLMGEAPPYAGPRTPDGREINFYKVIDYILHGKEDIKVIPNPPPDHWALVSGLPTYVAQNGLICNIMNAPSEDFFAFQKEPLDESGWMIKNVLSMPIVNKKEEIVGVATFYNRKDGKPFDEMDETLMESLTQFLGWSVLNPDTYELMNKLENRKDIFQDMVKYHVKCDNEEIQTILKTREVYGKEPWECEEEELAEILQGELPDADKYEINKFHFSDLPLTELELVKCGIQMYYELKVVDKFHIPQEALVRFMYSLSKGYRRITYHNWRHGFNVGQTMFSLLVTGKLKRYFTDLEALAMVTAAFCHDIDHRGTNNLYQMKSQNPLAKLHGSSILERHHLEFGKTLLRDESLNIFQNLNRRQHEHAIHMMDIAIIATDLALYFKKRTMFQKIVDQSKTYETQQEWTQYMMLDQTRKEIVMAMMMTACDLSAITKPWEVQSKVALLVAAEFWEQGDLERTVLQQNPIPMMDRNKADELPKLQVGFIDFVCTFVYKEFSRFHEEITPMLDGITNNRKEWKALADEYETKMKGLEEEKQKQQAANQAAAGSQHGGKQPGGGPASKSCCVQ
T1 sequence (P23439 1-853): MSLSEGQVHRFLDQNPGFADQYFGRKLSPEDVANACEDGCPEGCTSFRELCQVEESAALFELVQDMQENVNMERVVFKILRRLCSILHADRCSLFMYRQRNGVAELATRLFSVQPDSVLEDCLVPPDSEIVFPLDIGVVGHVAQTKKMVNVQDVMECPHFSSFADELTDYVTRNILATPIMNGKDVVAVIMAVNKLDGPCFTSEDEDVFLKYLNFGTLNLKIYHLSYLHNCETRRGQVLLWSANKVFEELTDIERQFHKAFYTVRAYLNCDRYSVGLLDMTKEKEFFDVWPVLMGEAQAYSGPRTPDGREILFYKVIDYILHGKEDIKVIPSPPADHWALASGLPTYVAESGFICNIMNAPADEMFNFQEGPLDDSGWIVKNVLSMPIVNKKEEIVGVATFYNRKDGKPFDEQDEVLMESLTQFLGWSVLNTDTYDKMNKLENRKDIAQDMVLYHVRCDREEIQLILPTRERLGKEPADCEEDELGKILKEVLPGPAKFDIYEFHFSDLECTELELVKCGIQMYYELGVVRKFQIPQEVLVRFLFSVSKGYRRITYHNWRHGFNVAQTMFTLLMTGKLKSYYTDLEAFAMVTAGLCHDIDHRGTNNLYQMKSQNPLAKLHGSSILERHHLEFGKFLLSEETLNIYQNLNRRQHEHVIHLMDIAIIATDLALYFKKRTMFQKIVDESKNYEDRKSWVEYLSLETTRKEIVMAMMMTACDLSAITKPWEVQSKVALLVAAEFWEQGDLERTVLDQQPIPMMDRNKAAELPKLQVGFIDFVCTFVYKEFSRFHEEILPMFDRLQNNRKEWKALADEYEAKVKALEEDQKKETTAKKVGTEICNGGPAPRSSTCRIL

[4] = system: IBS/ulcerative colitis; experiment: Example 9: patient with IBS/ulcerative colitis symptoms; assay type: in vivo, human; settings: 750 mg tablets three times per day for at least two months; present-tense example
Procedure: A person complains of symptoms associated with IBS/ulcerative colitis, including diarrhea with discharge of mucus and blood, cramping abdominal pain, and inflammation and edema of the mucous membrane with patches of ulceration. The patient is treated with tablets containing 750 mg of compound (1), three times per day, for at least two months. […] Similar positive results are observed for other patients complaining of the same or similar symptoms attributable to IBS or ulcerative colitis.

Sequence of Adrenergic, NE Transporter (P23975 whole entry): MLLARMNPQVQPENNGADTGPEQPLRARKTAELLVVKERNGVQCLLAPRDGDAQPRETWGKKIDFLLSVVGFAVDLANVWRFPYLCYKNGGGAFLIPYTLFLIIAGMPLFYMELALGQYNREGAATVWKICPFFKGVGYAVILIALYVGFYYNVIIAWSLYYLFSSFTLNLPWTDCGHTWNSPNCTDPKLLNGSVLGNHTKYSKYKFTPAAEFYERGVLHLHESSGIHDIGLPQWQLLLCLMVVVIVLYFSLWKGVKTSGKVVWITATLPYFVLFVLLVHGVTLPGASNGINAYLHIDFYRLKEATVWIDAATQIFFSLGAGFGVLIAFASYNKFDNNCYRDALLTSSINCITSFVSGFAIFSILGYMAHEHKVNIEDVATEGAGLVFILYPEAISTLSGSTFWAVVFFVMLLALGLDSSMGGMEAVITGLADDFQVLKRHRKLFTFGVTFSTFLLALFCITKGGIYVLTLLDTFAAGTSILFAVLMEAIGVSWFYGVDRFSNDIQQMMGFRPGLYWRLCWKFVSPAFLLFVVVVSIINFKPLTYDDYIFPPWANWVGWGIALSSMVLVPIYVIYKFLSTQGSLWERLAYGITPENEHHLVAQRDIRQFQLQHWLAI

Structure (SMILES)	IC50 [1]	Ki [1]	IC50 [2]	Ki ([2]; value in parentheses)	IC50 [3]	symptoms of IBS/ulcerative colitis reported by patient [4]
CCCc1c(SCCCOc2ccc(C(C)=O)c(OCCCC(=O)O)c2CCC)ccc(C(C)=O)c1O [Compound 1, 4-[6-acetyl-3-[3-(4-acetyl-3-hydroxy-2-propylphenylthio)propoxy]-2-propylphenoxy]butyric acid]	3.5 µM	3.47 µM	9.02 µM	2.29 µM	2.05 µM	positive effects
CCCc1c(SCCCOc2ccc(C(C)O)c(OCCCC(=O)O)c2CCC)ccc(C(C)=O)c1O (stereo not drawn) [Compound 2]	2.05 µM	2.03 µM			1.73 µM	
